Results reported in paper PMC11149917, “Translational and Therapeutic Evaluation of RAS-GTP Inhibition by RMC-6236 in RAS-Driven Cancers” (Cancer Discovery, 2024).
Like-named read-outs stand apart in the source and are kept apart here.

Assay: Mouse blood and tissue PK (LC/MS-MS)
Format: in vivo
Conditions: mouse, tumor, oral
Description: For single-dose PKPD study, mice were randomized and assigned into groups (n = 3/dose/time point). […] Blood and tissues, including the tumor, brain, colon, ear skin, and muscle, were harvested at indicated time points. […] The whole blood, tumor, brain, colon, and ear skin concentrations of RMC-6236 were determined using liquid chromatography–tandem mass spectrometry (LC/MS-MS) methods. […] After thorough mixing and centrifugation, the supernatant was diluted with water or directly analyzed on a Sciex 5500 or Sciex 6500+ triple quadrupole mass spectrometer equipped with an ACQUITY or Shimadzu UPLC system. […] Bioanalysis on blood and tissue samples from xenograft models was run at Pharmaron and Wuxi AppTec. Concentrations reported as below the quantification limit were treated as zero for PK analysis. PK parameters were calculated by noncompartmental analysis of the concentration–time profiles using Phoenix WinNonLin (version 8.3 Certara). Apparent terminal elimination half-life (t1/2) values were calculated as ln(2)/k, where k represents the terminal elimination rate constant. Area under the concentration–time curve (AUC) values were estimated using a linear trapezoidal method. AUClast values were calculated from the dosing time to the last quantifiable concentration. Maximum concentration (Cmax) was recorded as observed.

`CCn1c(-c2cc(N3CCN(C)CC3)cnc2[C@H](C)OC)c2c3cc(ccc31)-c1csc(n1)C[C@H](NC(=O)[C@H]1C[C@@H]1C)C(=O)N1CCC[C@H](N1)C(=O)OCC(C)(C)C2` [RMC-6236] gave a concentration at 4 h (25 mg/kg, HPAC #4, 25 mg/kg, individual animals, read-out: RMC-6236 (nM) Tumor) of 4090 nM, a concentration at 8 h (25 mg/kg, HPAC #4, 25 mg/kg, 8h, individual animals, read-out: RMC-6236 (nM) Tumor) of 4080 nM and a concentration at 24 h (25 mg/kg, HPAC #4, 25 mg/kg, 24h, individual animals, read-out: RMC-6236 (nM) Tumor) of 1260 nM. The concentration at 8 h (25 mg/kg, KP-4, study KP-4 #3, 25 mg/kg, 8h, read-out: RMC-6236 (nM) Tumor) was 3260 nM, the concentration at 24 h (25 mg/kg, KP-4, study KP-4 #3, 25 mg/kg, 24h, read-out: RMC-6236 (nM) Tumor) was 758 nM and the concentration at 8 h (25 mg/kg, KP-4, study KP-4 #4, 25 mg/kg, 8h, read-out: RMC-6236 (nM) Tumor) was 3030 nM. It also gave a concentration at 24 h (25 mg/kg, KP-4, study KP-4 #4, 25 mg/kg, 24h, read-out: RMC-6236 (nM) Tumor) of 840 nM, a concentration at 48 h (25 mg/kg, KP-4, study KP-4 #4, 25 mg/kg, 48h, read-out: RMC-6236 (nM) Tumor) of 312 nM and a concentration at 4 h (25 mg/kg, KP-4, study KP-4 #5, 25 mg/kg, read-out: RMC-6236 (nM) Tumor) of 2460 nM. It also gave a concentration at 24 h (25 mg/kg, KP-4, study KP-4 #5, 25 mg/kg, 24h, read-out: RMC-6236 (nM) Tumor) of 859 nM, a concentration at 48 h (25 mg/kg, KP-4, study KP-4 #5, 25 mg/kg, 48h, read-out: RMC-6236 (nM) Tumor) of 281 nM and a concentration at 8 h (25 mg/kg, KP-4, study KP-4 #6, 25 mg/kg, 8h, read-out: RMC-6236 (nM) Tumor) of 4160 nM. The concentration at 24 h (25 mg/kg, KP-4, study KP-4 #6, 25 mg/kg, 24h, read-out: RMC-6236 (nM) Tumor) was 1500 nM, the concentration at 48 h (25 mg/kg, KP-4, study KP-4 #6, 25 mg/kg, 48h, read-out: RMC-6236 (nM) Tumor) was 739 nM and the concentration at 1 h (25 mg/kg, Model Development Dataset, 25mg/kg_study8, read-out: Tumor Concentration) was 457 nM. For the same compound, the concentration at 2 h (25 mg/kg, Model Development Dataset, 25mg/kg_study8, 2 h, read-out: Tumor Concentration) was 1530 nM, the concentration at 8 h (25 mg/kg, Model Development Dataset, 25mg/kg_study8, 8 h, read-out: Tumor Concentration) was 2320 nM and the concentration at 24 h (25 mg/kg, Model Development Dataset, 25mg/kg_study8, 24 h, read-out: Tumor Concentration) was 995 nM. It also gave a concentration at 240 h (25 mg/kg, Model Development Dataset, 25mg/kg_study8r (doses every 24 h, 0-[…]), read-out: Tumor Concentration) of 410 nM, a concentration at 1 h (25 mg/kg, Model Validation Dataset, 25mg/kg_study6, read-out: Tumor Concentration) of 358 nM and a concentration at 8 h (25 mg/kg, Model Validation Dataset, 25mg/kg_study6, 8 h, read-out: Tumor Concentration) of 2570 nM. For the same compound, the concentration at 24 h (25 mg/kg, Model Validation Dataset, 25mg/kg_study6, 24 h, read-out: Tumor Concentration) was 890 nM, the concentration at 48 h (25 mg/kg, Model Validation Dataset, 25mg/kg_study6, 48 h, read-out: Tumor Concentration) was 690 nM and the concentration at 72 h (25 mg/kg, Model Validation Dataset, 25mg/kg_study6, 72 h) was 433 nM. It also gave a concentration at 8 h (25 mg/kg, NCI-H441 xenograft tumor, study NCI-H441#6, 25 mg/kg, 8h, read-out: RMC-6236 (nM) Tumor) of 2380 nM, a concentration at 24 h (25 mg/kg, NCI-H441 xenograft tumor, study NCI-H441#6, 25 mg/kg, 24h, read-out: RMC-6236 (nM) Tumor) of 989 nM and a concentration at 48 h (25 mg/kg, NCI-H441 xenograft tumor, study NCI-H441#6, 25 mg/kg, 48h, read-out: RMC-6236 (nM) Tumor) of 641 nM. It also gave a concentration at 8 h (25 mg/kg, NCI-H441 xenograft tumor, study NCI-H441#8, 25 mg/kg, 8h, read-out: RMC-6236 (nM) Tumor) of 2740 nM, a concentration at 24 h (25 mg/kg, NCI-H441 xenograft tumor, study NCI-H441#8, 25 mg/kg, 24h, read-out: RMC-6236 (nM) Tumor) of 1080 nM and a concentration at 4 h (25 mg/kg, sheet colon, KP-4, KP-4 #5, 25 mg/kg, read-out: RMC-6236 (nM) Tumor) of 5860 nM. For the same compound, the concentration at 24 h (40 mg/kg, KP-4, study KP-4 #4, 40 mg/kg, 24h, read-out: RMC-6236 (nM) Tumor) was 1620 nM, the concentration at 48 h (40 mg/kg, KP-4, study KP-4 #4, 40 mg/kg, 48h, read-out: RMC-6236 (nM) Tumor) was 661 nM and the concentration at 1 h (40 mg/kg, Model Development Dataset, 40mg/kg_study8, read-out: Tumor Concentration) was 947 nM. For the same compound, the concentration at 2 h (40 mg/kg, Model Development Dataset, 40mg/kg_study8, 2 h, read-out: Tumor Concentration) was 3090 nM, the concentration at 8 h (40 mg/kg, Model Development Dataset, 40mg/kg_study8, 8 h, read-out: Tumor Concentration) was 3380 nM and the concentration at 24 h (40 mg/kg, Model Development Dataset, 40mg/kg_study8, 24 h, read-out: Tumor Concentration) was 1810 nM. For the same compound, the concentration at 240 h (40 mg/kg, Model Development Dataset, 40mg/kg_study8r (doses every 24 h, 0-[…]), read-out: Tumor Concentration) was 876 nM, the concentration at 2 h (40 mg/kg, NCI-H441 xenograft tumor, study NCI-H441#8, 40 mg/kg, 2h, read-out: RMC-6236 (nM) Tumor) was 3260 nM and the concentration at 8 h (40 mg/kg, NCI-H441 xenograft tumor, study NCI-H441#8, 40 mg/kg, 8h, read-out: RMC-6236 (nM) Tumor) was 2820 nM. The concentration at 4 h (50 mg/kg, HPAC #3, 50 mg/kg, individual animals, read-out: RMC-6236 (nM) Tumor) was 4620 nM, the concentration at 8 h (50 mg/kg, HPAC #3, 50 mg/kg, 8h, individual animals, read-out: RMC-6236 (nM) Tumor) was 6090 nM and the concentration at 24 h (50 mg/kg, HPAC #3, 50 mg/kg, 24h, individual animals, read-out: RMC-6236 (nM) Tumor) was 3810 nM. It also gave a concentration at 48 h (50 mg/kg, HPAC #3, 50 mg/kg, 48h, individual animals, read-out: RMC-6236 (nM) Tumor) of 1440 nM, a concentration at 8 h (50 mg/kg, KP-4, study KP-4 #3, 50 mg/kg, 8h, read-out: RMC-6236 (nM) Tumor) of 5580 nM and a concentration at 24 h (50 mg/kg, KP-4, study KP-4 #3, 50 mg/kg, 24h, read-out: RMC-6236 (nM) Tumor) of 2070 nM. For the same compound, the concentration at 48 h (50 mg/kg, KP-4, study KP-4 #3, 50 mg/kg, 48h, read-out: RMC-6236 (nM) Tumor) was 489 nM, the concentration at 1 h (50 mg/kg, Model Validation Dataset, 50mg/kg_study6, read-out: Tumor Concentration) was 1310 nM and the concentration at 8 h (50 mg/kg, Model Validation Dataset, 50mg/kg_study6, 8 h, read-out: Tumor Concentration) was 4800 nM.
